Data from US9358226B2, “Triarylmethane analogs and their use in treating cancers” (Emory University, priority 2007, dated 2016).

Key:
Nox2 = biological target: T1, Nox2 (Homo sapiens, UniProt P04839); experiment: H2O2 production, homovanillic acid assay, Cos-phox cells; format: cell-based; conditions: phorbol 12-myristate 13-acetate stimulated, 1 hour 37° C.
T1 construct: expressed in transfected cells; host or cells: COS-phox cells
T1 sequence (P04839 2-570 limits assumed): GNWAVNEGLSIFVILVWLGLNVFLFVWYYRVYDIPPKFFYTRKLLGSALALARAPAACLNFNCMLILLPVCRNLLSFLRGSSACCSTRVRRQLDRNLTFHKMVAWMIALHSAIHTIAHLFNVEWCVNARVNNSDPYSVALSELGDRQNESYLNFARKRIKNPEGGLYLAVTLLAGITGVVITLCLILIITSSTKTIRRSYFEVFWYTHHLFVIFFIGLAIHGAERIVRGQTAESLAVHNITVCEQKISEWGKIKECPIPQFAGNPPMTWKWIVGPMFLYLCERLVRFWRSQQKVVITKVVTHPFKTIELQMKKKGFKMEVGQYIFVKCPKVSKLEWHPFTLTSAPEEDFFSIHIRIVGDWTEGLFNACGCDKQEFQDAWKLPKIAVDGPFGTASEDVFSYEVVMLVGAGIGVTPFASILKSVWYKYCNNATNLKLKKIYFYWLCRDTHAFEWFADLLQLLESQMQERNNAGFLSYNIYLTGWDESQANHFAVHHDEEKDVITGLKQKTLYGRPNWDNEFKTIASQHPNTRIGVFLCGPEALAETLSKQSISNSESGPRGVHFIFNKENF
T1 sequence (P13498 2-195 partner limits assumed): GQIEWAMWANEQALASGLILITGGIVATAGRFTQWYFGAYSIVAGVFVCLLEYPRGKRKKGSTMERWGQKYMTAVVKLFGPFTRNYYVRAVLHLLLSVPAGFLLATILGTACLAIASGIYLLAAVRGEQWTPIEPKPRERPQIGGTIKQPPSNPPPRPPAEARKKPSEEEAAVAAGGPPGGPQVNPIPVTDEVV
Experimental: (§1) After 1 hour incubation at 37° C., the reaction was stopped and H2O2 production was measured using the homovanillic acid assay. The ability of these drugs to inhibit production of H2O2 is shown as a percentage relative to the untreated control (100%). […] Optimal Nox2 activity requires phorbol 12-myristate 13-acetate stimulation whereas Nox4 activity is constitutive.
(§2) H2O2 release was measured using the homovanillic acid assay as described previously (Martyn, 2006). Briefly, 1.5-1.75×10^5 cells/well of a 12-well plate were seeded. The following day, cells were washed once with Hank's balanced salt solution and then preincubated for 15 minutes with either gentian violet (10-20 nM) or brilliant green (0.5-1.0 μM) in 1 ml of media. The cells were then washed once with Hank's balanced salt solution. Gentian violet or brilliant green was added at the same concentrations as in pretreatment to 0.5 ml of homovanillic acid assay solution (100 μM homovanillic acid assay, 4 U/ml horseradish peroxidase in Hank's balanced salt solution with Ca^2+ and Mg^2+) and incubated with the cells for 1 hour at 37° C. Cos-phox cells were additionally stimulated with 0.4 μg/ml phorbol 12-myristate 13-acetate. […] Fluorescence was read on a BioTek Synergy HT (BioTek Instruments Inc., Winooski, Vermont, […].) with an excitation of 320 nm and emission of 440 nm.

Nox4 = biological target: T2, Nox4 (Homo sapiens, UniProt Q9NPH5); experiment: H2O2 production, homovanillic acid assay, HEK293 Nox4-11 cells; format: cell-based; conditions: 1 hour 37° C.
T2 construct: expressed in transfected cells; host or cells: HEK293 Nox4-11 cells
T2 sequence (Q9NPH5 1-578): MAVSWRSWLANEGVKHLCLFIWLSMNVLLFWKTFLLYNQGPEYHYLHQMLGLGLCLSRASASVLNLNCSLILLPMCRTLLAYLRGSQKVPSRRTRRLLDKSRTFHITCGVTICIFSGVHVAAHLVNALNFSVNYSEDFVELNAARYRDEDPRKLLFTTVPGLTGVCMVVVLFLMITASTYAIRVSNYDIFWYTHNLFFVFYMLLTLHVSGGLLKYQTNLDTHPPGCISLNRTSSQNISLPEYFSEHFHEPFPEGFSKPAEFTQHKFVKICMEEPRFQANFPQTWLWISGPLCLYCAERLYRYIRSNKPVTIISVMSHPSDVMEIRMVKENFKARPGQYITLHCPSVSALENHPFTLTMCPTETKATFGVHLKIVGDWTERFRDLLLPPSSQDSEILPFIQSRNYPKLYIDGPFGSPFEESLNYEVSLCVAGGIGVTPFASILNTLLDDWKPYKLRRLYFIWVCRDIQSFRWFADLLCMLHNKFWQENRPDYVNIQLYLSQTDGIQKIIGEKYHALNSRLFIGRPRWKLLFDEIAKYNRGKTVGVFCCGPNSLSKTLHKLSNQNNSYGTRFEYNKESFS
T2 sequence (P13498 2-195 partner limits assumed): T1 sequence (P13498 2-195 partner limits assumed)
Experimental: as §1, §2

[1] = test system: P. falciparum Dd2 (Multidrug Resistant); experiment: Malaria model, multidrug resistant P. falciparum; format: cell-based; conditions: Plasmodium falciparum, DD2; read-out: IC50 (nM) vs P. falciparum Dd2 (Multidrug Resistant)
Experimental: The compounds were tested in a malaria model using both chloroquine sensitive and multidrug resistant P. falciparum. The malaria model was the same as published in JAC Advance Access published online on Jul. 30, 2008, Journal of Antimicrobial Chemotherapy, doi:10.1093/jac/dkn315, the contents of which are hereby incorporated by reference, and the data is summarized in the table below.
Briefly, the assay involves exposing both chloroquine sensitive and multidrug resistant P. falciparum to the compounds. After one hour of exposure to the highest concentration of the compound, followed by removal of the compound, the growth of all stages of P. falciparum was observed. The reduction in the growth stages was then compared with untreated control parasites. […] The presence of strong inhibition (defined herein as 10% growth) of all parasite stages was evaluated when the parasites were exposed to various concentrations of various compounds.

[2] = ESR spectrum with superoxide dismutase; conditions: room temperature ESR, conditions as in Li et al.
Experimental: Li used ESR to confirm the production of NADPH-dependent.O2—by isolated endosomes (Li et al., Molecular and Cellular Biology, January 2006, p. 140-154, 26(1):140-154 (2006)). ESR assays were conducted at room temperature using a Bruker model EMX ESR spectrometer (Bruker). Vesicular fractions from each sample were mixed with the spin trap, 50 mM 5,5-dimethyl-1-pyrroline N-oxide (DMPO), in a total volume of 500 μl of PBS, pH 7.4. This solution contained iminodiacetic acid-chelating resin (10 ml/liter; Sigma-Aldrich). The reaction was initiated by adding NADPH to 100 μM and was immediately placed into the ESR spectrometer. DMPO-hydroxyl radical adduct formation was assayed for 10 min. Instrument settings were as follows: receiver gain, 1×10^6; modulation frequency, 100 kHz; microwave power, 40.14 mW; modulation amplitude, 1.0 G; and sweep rate, 1 G/s.

SMILES: CN(C)c1ccc(C(=C2C=CC(=[N+](C)C)C=C2)c2ccc(N(C)C)cc2)cc1 [Gentian Violet (GV), hexamethyl pararosaniline chloride]
- inhibition of Nox2 activity (H2O2 production) (Nox2): inhibited
- inhibition of Nox4 activity (H2O2 production) (Nox4): inhibited
- IC50 [1]: 0.44 nM
- radical formation with superoxide (ESR) [2]: appear to form a radical by reacting with superoxide
